The target of this experiment is Serine/threonine-protein phosphatase 5 (Homo sapiens) (UniProt P53041). In words: human PP5 catalytic domain inhibitor potency – biochemical, radiolabel, glycogen phosphorylase substrate, powder samples, selectivity assay for PP1 inhibitor project, late-stage follow-up (AID 652111). Conditions: recombinant PP5c, 32P/33P phosphorylase dephosphorylation, scintillation.

Each structure is given as a SMILES string. Activity calls are given as the source filed them.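 The calls were made as follows: active = IC50 below 50 µM against PP5; inactive = the rest.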

Chain of Serine/threonine-protein phosphatase 5 (Homo sapiens) (P53041 whole entry, looked up, the tested form may be a part): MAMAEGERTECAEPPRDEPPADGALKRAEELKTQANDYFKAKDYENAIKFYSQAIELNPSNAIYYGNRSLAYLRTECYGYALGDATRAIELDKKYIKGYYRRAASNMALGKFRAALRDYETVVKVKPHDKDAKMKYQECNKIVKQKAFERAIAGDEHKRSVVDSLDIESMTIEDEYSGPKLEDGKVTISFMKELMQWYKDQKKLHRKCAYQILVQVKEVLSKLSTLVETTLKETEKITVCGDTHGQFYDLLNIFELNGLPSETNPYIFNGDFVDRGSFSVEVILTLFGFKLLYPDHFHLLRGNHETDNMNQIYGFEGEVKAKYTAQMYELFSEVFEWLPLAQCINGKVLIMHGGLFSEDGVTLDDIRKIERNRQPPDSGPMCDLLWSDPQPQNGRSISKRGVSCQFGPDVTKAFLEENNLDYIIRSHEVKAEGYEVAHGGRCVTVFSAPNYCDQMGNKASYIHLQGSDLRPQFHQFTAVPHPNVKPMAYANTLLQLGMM

Turning to `CCOC(=O)c1sc2nc3c(SCC(=O)O)cc(C(=O)c4cc(F)ccc4O)cn3c(=O)c2c1C`, the IC50 (as a rule, the concentration needed to halve the response being measured) is less than 50 µM.
To `COc1ccc(NC(=O)C2C3CCC(O3)C2C(=O)O)c(OC)c1` (stereo not given) belongs 4.16 µM.
To `N#Cc1c(-c2ccc(Cl)cc2)cc(-c2cccs2)nc1SCC(=O)O` belongs less than 50 µM; to `CCn1c2ccccc2c2cc(NC(=O)COC(=O)c3ccc(NC(=O)CC#N)cc3)ccc21`, > 50 µM (inactive).
To `CN1CCN(C(c2ccccn2)c2cc(Cl)c3cccnc3c2O)CC1` (stereo not given) belongs > 50 µM (inactive).

Source of the values: PubChem BioAssay AID652111 (The Scripps Research Institute Molecular Screening Center, 2013).
